Values joined by “and” are separate entries in the source; they are usually repeats but may differ in a detail not shown here. Equal entries are not always repeated. Marks after values point to notes of the source that are not given here. Where no end group is shown, it is not given here.
Columns and labels:
mouse spleen lymphocytes = assay: ConA-stimulated mouse spleen lymphocyte proliferation (MTT); format: cell-based; details: ConA 5 μg/mL, 48 h
Protocol: Tris-NH4Cl was used to break the red blood cells, and the cells were allowed to stand in an ice water bath for 4 min, centrifuged (1000 rpm×5 min), the supernatant was discarded, and the cells were washed twice with sterile PBS. Finally, cells were suspended in RPMI 1640 medium (5 mL) supplemented with 10% calf serum, counted, adjusted to a cell concentration of 5×10^6/mL, and cultured in a 96-well culture plate The test group consisted of blank control group, concanavalin A (ConA) group, dexamethasone (Dex) group (0.02 mg/mL) and mPEG-HM-1 group. […] The cells were cultured in a 37° C. cell culture chamber for 48 h. After the completion of the culture, 20 μL of MTT was added to each well, and the culture was continued for 4 h. Finally, all the solutions in each well were discarded, 100 μL of DMSO was added to each well, and the mixture was shaken and detected by a microplate reader OD value at 570 nm, 5 parallels per hole.

Hemangioma tumor cells = assay: MTT proliferation inhibition, hemangioma cells; format: cell-based, human; design: concentration or dose not given beside the values; details: 48 h
Protocol: (§1) The activity of mPEG-HM-1 to inhibit the growth of various tumor cells was examined by MTT assay. The tumor cells were cultured to a concentration of 90% or more in a 37° C., 5% CO2 incubator and collected by trypsinization. The cells were resuspended in the culture medium and counted under a microscope to adjust the cell concentration to 2×10^4 cells/mL, the cell suspension was inoculated into a 96-well plate at 100 μL/well and incubated overnight at 37° C. in a 5% CO2 incubator. mPEG-HM-1 was diluted with the culture solution to each predetermined concentration. Docetaxel is diluted to the final concentration with the culture medium. After the cells were fully attached, each dilution was added to a 96-well plate (100 μL/well). The mPEG-HM-1 dilution was added as a drug-administered group, and docetaxel was added as a positive control group, and a culture solution without any drug was used as a negative control group. Incubate for 48 h at 37° C. in a 5% CO2 incubator. 5 mg/mL of MTT was added to a 96-well plate at 20 μL per well, and incubation was continued for 4 hours. The medium was aspirated, dissolved in 150 μL of DMSO per well, and gently mixed by shaking for 10 min. The absorbance was measured at a measurement wavelength of 570 nm and a reference wavelength of 630 nm using a microplate reader, and the rate of growth inhibition (proliferation inhibition, PI) was calculated. The formula is as follows: PI (%)=1−administration group/negative group
(§2) The test was repeated 3 times independently, and the results obtained by the test were expressed as mean±SD, and the test results are shown in Table 15 to Table 18.

[1] = system: corneal neovascularization in BALB/c mice; assay: Alkali-burn corneal neovascularization in BALB/c mice (CD31 microvessel density); format: in vivo, mouse; details: for Inhibition rate: corneal microvessel density vs control; for Inhibition rate / MVD: day 14 after alkali burn, intravitreal once a day for 1 week; for MVD: microvessel density (CD31) of cornea
Description: (1) Preparation of corneal neovascularization model induced by alkali burn in BALB/c mice: mice were randomly grouped and labeled as mPEG-HM-1 experimental group and control group, 5 […] in each group, respectively, was given mPEG-HM-1 and saline by Intravitreal injection after alkali burn, once a day for 1 week. The inflammatory reaction and neovascularization of the cornea were observed under slit lamp microscope at 1 d, 7 d, and 14 d after alkali burn. On the 14th day after alkali burn, the corneal neovascularization was recorded under the slit lamp microscope in the anterior segment of the eye. All the mice were euthanized by cervical dislocation and the eyeballs were removed, washed with saline to rid of blood, and was fixed in 4% paraformaldehyde for 1.5 h, dehydrated in PBS containing 30% sucrose overnight, embedded in OCT frozen section embedding agent, stored in −80° C. refrigerator, frozen section 8 μm, and underwent immunocytochemical detection of CD31 expression. (2) Quantitative measurement of corneal tissue microvessel density: Microvessel density (MVD) is an indicator for evaluating angiogenesis. Vascular endothelial cells were labeled with anti-CD31 antibody by immunohistochemistry, and the number of microvessels per unit area was counted to measure the degree of neovascularization. Standards for counting microvessels: Microscopically, the endothelial cells or cell clusters that are clearly demarcated from adjacent tissues in the corneal tissue and stained brown or brown are counted in the neovascularization. The number of new blood vessels in the whole section was counted under a 10×20 microscope. After the corneal tissue was photographed, the entire corneal tissue area was calculated by image processing software Image J, and the neovascular density of the whole section was determined. The test was repeated 3 times independently. The results obtained by the test were expressed as mean±SD, and a statistical T test was performed. *P<0.05 was a significant difference, and **P<0.01 was a very significant difference.

[2] = system: Colorectal cancer tumor cells; assay: MTT proliferation inhibition, colorectal cancer cells; format: cell-based, human; design: concentration or dose not given beside the values; details: 48 h
Protocol: as §1, §2

[3] = system: choroidal neovascularization in BN rats; assay: Laser-induced choroidal neovascularization in BN rats (FFA); format: in vivo, rat
Protocol: 6-8 weeks old male BN rats were anesthetized with 846 compound anesthetic 0.5 mL/kg administered intraperitoneally. The eye drops of compound tropamide eyes were used 5 minutes before laser photocoagulation, and the pupils of both eyes were fully scattered. Fix animals, with the aid of −53.00 D contact lens, around the optic disc and along the same distance from the optic disc 2PD, the laser beam photocoagulation were performed to make a total of 8 photo-condensation spots, with laser wavelength of 647.1 nm, power of 350 mW, photocoagulation spot diameter and time were 50 μm and 0.05 s, respectively. Immediately after photocoagulation, fundus photography was performed. FFA, histopathology and transmission electron microscopy were performed at 3, 7, 14, 21, and 28 days after photocoagulation.
It was confirmed by fundus photography and FFA examination that the fluorescein leakage of photocoagulation peaked on the 21st day after photocoagulation, and histopathological examination was performed at the same time. […] A large number of neovascular vessels were seen, and red blood cells were visible in the lumen. Microscopically, capillary cells in the choroidal melanocytes were cohesively altered and endothelial cells aggregated.
Rats that were successfully modeled were randomly divided into groups of 5 rats each. They were labeled as negative control group, mPEG-SC-HM-1 treatment group, mPEG2-NHS-HM-1 treatment group, mPEG-ALD-HM-1 treatment group and mPEG-bALD-HM-1 treatment group, respectively. Saline, mPEG-HM-1 (see Table 53 for dosing) was administered intravitreally, once daily for 1 week. FFA examinations were performed 3 days, 7 days, 14 days, and 28 days after administration of the modified peptides.

[4] = system: Ovarian cancer tumor cells; assay: MTT proliferation inhibition, ovarian cancer cells; format: cell-based, human; design: concentration or dose not given beside the values; details: 48 h
Protocol: as §1, §2

mPEG2-NHS40k-Arg-Gly-Ala-Asp-Arg-Ala-Gly-Gly-Gly-Gly-Arg-Gly-Asp ({mPEG2‑NHS 40 kDa}-RGADRAGGGGRGD) [mPEG2-NHS40k-HM-1]
A570 nm/A630 nm (mouse spleen lymphocytes; 40 μg/mL): 0.6191 ± 0.0984
Inhibition Rate of spleen lymphocyte proliferation (mouse spleen lymphocytes; 40 μg/mL): 10.59%
A570 nm/A630 nm (mouse spleen lymphocytes; 80 μg/mL): 0.4985 ± 0.1248
Inhibition Rate of spleen lymphocyte proliferation (mouse spleen lymphocytes; 80 μg/mL): 28.01%
A570 nm/A630 nm (mouse spleen lymphocytes; 160 μg/mL): 0.4827 ± 0.1136
Inhibition Rate of spleen lymphocyte proliferation (mouse spleen lymphocytes; 160 μg/mL): 30.28%
rate of growth inhibition (Hemangioma tumor cells): 50.64 ± 15.89%
Inhibition rate [1]: 43.19%
MVD [1]: 37.91 ± 4.273**
rate of growth inhibition [2]: 54.40 ± 18.29%
CNV Incidence rate ([3]; Day 3 after administration, 200 μg intravitreally once daily for 1 week (Table 53)): 51.02%
leakage Spots # ([3]; Day 3 after administration, 200 μg intravitreally once daily for 1 week (Table 53), total spots 290-296 by table): 150
CNV Incidence rate ([3]; Day 7, 200 μg intravitreally once daily for 1 week (Table 53)): 51.10%
leakage Spots # ([3]; Day 7, 200 μg intravitreally once daily for 1 week (Table 53), total spots 182-188 by table): 93
CNV Incidence rate ([3]; Day 14, 200 μg intravitreally once daily for 1 week (Table 53)): 44.53%
leakage Spots # ([3]; Day 14, 200 μg intravitreally once daily for 1 week (Table 53), total spots 132-138 by table): 61
CNV Incidence rate ([3]; Day 28, 200 μg intravitreally once daily for 1 week (Table 53)): 41.18%
leakage Spots # ([3]; Day 28, 200 μg intravitreally once daily for 1 week (Table 53), total spots 67-71 by table): 28
rate of growth inhibition [4]: 61.59 ± 13.61%

mPEG-ALD5k-Arg-Gly-Ala-Asp-Arg-Ala-Gly-Gly-Gly-Gly-Arg-Gly-Asp ({mPEG‑ALD 5 kDa}-RGADRAGGGGRGD) [mPEG-ALD5k-HM-1]
A570 nm/A630 nm (mouse spleen lymphocytes; 5 μg/mL): 0.6241 ± 0.0917
Inhibition Rate of spleen lymphocyte proliferation (mouse spleen lymphocytes; 5 μg/mL): 9.14%
A570 nm/A630 nm (mouse spleen lymphocytes; 10 μg/mL): 0.5448 ± 0.1072
Inhibition Rate of spleen lymphocyte proliferation (mouse spleen lymphocytes; 10 μg/mL): 20.68%
A570 nm/A630 nm (mouse spleen lymphocytes; 20 μg/mL): 0.4779 ± 0.1178
Inhibition Rate of spleen lymphocyte proliferation (mouse spleen lymphocytes; 20 μg/mL): 30.42%
rate of growth inhibition (Hemangioma tumor cells): 43.89 ± 14.14%
Inhibition rate [1]: 45.09%
MVD [1]: 36.64 ± 3.909*
rate of growth inhibition [2]: 57.30 ± 15.82%
CNV Incidence rate ([3]; Day 3 after administration, 25 μg intravitreally once daily for 1 week (Table 53)): 55.17%
leakage Spots # ([3]; Day 3 after administration, 25 μg intravitreally once daily for 1 week (Table 53), total spots 290-296 by table): 160
CNV Incidence rate ([3]; Day 7, 25 μg intravitreally once daily for 1 week (Table 53)): 52.75%
leakage Spots # ([3]; Day 7, 25 μg intravitreally once daily for 1 week (Table 53), total spots 182-188 by table): 96
CNV Incidence rate ([3]; Day 14, 25 μg intravitreally once daily for 1 week (Table 53)): 46.97%
leakage Spots # ([3]; Day 14, 25 μg intravitreally once daily for 1 week (Table 53), total spots 132-138 by table): 62
CNV Incidence rate ([3]; Day 28, 25 μg intravitreally once daily for 1 week (Table 53)): 46.48%
leakage Spots # ([3]; Day 28, 25 μg intravitreally once daily for 1 week (Table 53), total spots 67-71 by table): 33
rate of growth inhibition [4]: 65.81 ± 20.42%

mPEG-ALD10k-Arg-Gly-Ala-Asp-Arg-Ala-Gly-Gly-Gly-Gly-Arg-Gly-Asp ({mPEG‑ALD 10 kDa}-RGADRAGGGGRGD) [mPEG-ALD10k-HM-1]
A570 nm/A630 nm (mouse spleen lymphocytes; 10 μg/mL): 0.6116 ± 0.1046
Inhibition Rate of spleen lymphocyte proliferation (mouse spleen lymphocytes; 10 μg/mL): 10.96%
A570 nm/A630 nm (mouse spleen lymphocytes; 20 μg/mL): 0.5352 ± 0.1022
Inhibition Rate of spleen lymphocyte proliferation (mouse spleen lymphocytes; 20 μg/mL): 22.08%
A570 nm/A630 nm (mouse spleen lymphocytes; 40 μg/mL): 0.4651 ± 0.1086
Inhibition Rate of spleen lymphocyte proliferation (mouse spleen lymphocytes; 40 μg/mL): 32.29%
rate of growth inhibition (Hemangioma tumor cells): 60.25 ± 14.33%
inhibition rate of corneal neovascularization ([1]; BALB/c mice, alkali burn, intravitreal injection once a day for 1 week): 53.83%
Inhibition rate [1]: 53.83%
MVD [1]: 30.81 ± 5.465**
rate of growth inhibition [2]: 80.22 ± 20.03%
incidence of CNV ([3]; BN rats, 28 days after administration, intravitreal once daily for 1 week): 39.44% and 39.13%
CNV Incidence rate ([3]; Day 3 after administration, 50 μg intravitreally once daily for 1 week (Table 53)): 48.62%
leakage Spots # ([3]; Day 3 after administration, 50 μg intravitreally once daily for 1 week (Table 53), total spots 290-296 by table): 141
CNV Incidence rate ([3]; Day 7, 50 μg intravitreally once daily for 1 week (Table 53)): 46.15%
leakage Spots # ([3]; Day 7, 50 μg intravitreally once daily for 1 week (Table 53), total spots 182-188 by table): 84
CNV Incidence rate ([3]; Day 14, 50 μg intravitreally once daily for 1 week (Table 53)): 41.67%
leakage Spots # ([3]; Day 14, 50 μg intravitreally once daily for 1 week (Table 53), total spots 132-138 by table): 55
CNV Incidence rate ([3]; Day 28, 50 μg intravitreally once daily for 1 week (Table 53)): 39.44%
leakage Spots # ([3]; Day 28, 50 μg intravitreally once daily for 1 week (Table 53), total spots 67-71 by table): 28
rate of growth inhibition [4]: 85.73 ± 22.17%
